The results in this text go back to paper PMC11860126, “X-Ray Irradiation Induces Oxidative Stress and Upregulates Intestinal Nrf2-Mrp2 Pathway, Leading to Decreased Intestinal Absorption of Valsartan” (Pharmaceutics, 2025).

Each structure is given as a SMILES string.

For the data set, the system named is Caco-2 cells. In words: Caco-2 cell uptake assay of valsartan with Mrp2/P-gp inhibitors and irradiation. The settings on record: valsartan 10 μM, 5 Gy X-ray 24 h before.

Regarding `CCCCC(=O)N(Cc1ccc(-c2ccccc2-c2nnn[nH]2)cc1)[C@H](C(=O)O)C(C)C` [valsartan, Valsartan], the “valsartan uptake in Caco-2 cells, IR group compared with control group” value reads like this: (1 h, p < 0.05) “significant reduction”; (2 h) “no significant difference”.
